Test results reported in patent US20100036088A1, “Selective poly-N-substituted glycine antibiotics” (priority 2008, published 2010).
Numbered stars: 1 amine (or outer) side, 2 acyl side, 3 side chain; on linkers, the order of the positions; unused ones are H or OH. Square brackets hold non-standard residues; d marks the D form. Peptide text beside a SMILES is read from it. X3 = C[C@@H](c1ccc2ccccc2c1)N(CC(=O)[*:2])[*:1]; N(1S-Me-propyl)Gly = CC[C@H](C)NCC(=O)O; Nspe = C[C@H](NCC(=O)O)c1ccccc1; Nlys = NCCCCNCC(=O)O

System: human erythrocytes
Experiment: Hemolysis assay
Assay type: cell-based
Conditions: not given
Method: Hemolysis assays. Erythrocytes were isolated from freshly drawn, heparanized human blood and resuspended to 20 vol % in PBS (pH 7.4). In a 96-well microtiter plate, 100 μL erythrocyte suspension was added to 100 μL peptoid solution in PBS (prepared by 1:2 serial dilutions), or 100 μL PBS in the case of negative controls. 100% hemolysis wells contained 100 μL blood cell suspension with 100 μL 0.2 vol % Triton X-100. The plate was incubated for 1 h at 37° C., then each well was diluted with 150 μL PBS. The plate was then centrifuged at 1200 g for 15 min, 100 μL of the supernatant from each well transferred to a fresh microtiter plate, and A350 measured.
Hemolysis assays. Erythrocytes were isolated from freshly drawn, heparanized human blood and resuspended in PBS (pH 7.4) to make a 20% volume suspension. Peptoid solutions were prepared by serial dilution (2:1) in a 96-well microtiter plate. For test wells, 100 μL of erythrocyte suspension was added to 100 μL of peptoid solution in PBS; PBS without peptoid was used as the negative control and 0.2 vol % Triton X-100 as the positive control that indicates 100% hemolysis. After 1 hour incubation at 37° C., each well was diluted with 150 μL PBS. Plates were then centrifuged at 1,200×g for 15 minutes to pellet the cells. 30 μL of the supernatant from each well were transferred to the corresponding well of a second 96-well plate that contains 70 μL PBS.

Row | SMILES | no hemolysis up to [µM]
1 | CC[C@H](C)N(CC(=O)N(CC(=O)N(CC(=O)N(CCCCN)CC(N)=O)[C@@H](C)c1ccccc1)[C@@H](C)CC)C(=O)CN(CCCCN)C(=O)CN(C(=O)CN(CCCCN)C(=O)CN(C(=O)CN(C(=O)CN(C(=O)CN(C(=O)CNCCCCN)[C@@H](C)CC)[C@@H](C)c1ccccc1)[C@@H](C)CC)[C@@H](C)c1ccccc1)[C@@H](C)c1ccccc1 [2scrambled, H-Nlys-Nssb-Nspe-Nssb-Nspe-Nlys-Nspe-Nlys-Nssb-Nssb-Nspe-Nlys-NH2] (H-[Nlys][N(1S-Me-propyl)Gly][Nspe][N(1S-Me-propyl)Gly][Nspe][Nlys][Nspe][Nlys][N(1S-Me-propyl)Gly][N(1S-Me-propyl)Gly][Nspe][Nlys]-NH2) | > 120

Same assay, conditions: red cells of human, 1 h

Row | SMILES | HD10 (10% hemolytic dose) | HD50 (50% hemolytic dose)
2 | C[C@@H](c1ccccc1)N(CC(N)=O)C(=O)CN(C(=O)CN(CCC(=O)O)C(=O)CN(C(=O)CN(C(=O)CN(CCCCN)C(=O)CN(C(=O)CN(C(=O)CN(CCC(=O)O)C(=O)CN(C(=O)CN(C(=O)CNCCCCN)[C@@H](C)c1ccccc1)[C@@H](C)c1ccccc1)[C@@H](C)c1ccccc1)[C@@H](C)c1ccccc1)[C@@H](C)c1ccccc1)[C@@H](C)c1ccccc1)[C@@H](C)c1ccccc1 [1-Nglu4,10] | 19 µM | 40 µM
3 | C[C@@H](c1ccccc1)N(CC(N)=O)C(=O)CN(C(=O)CN(C(=O)CN(C(=O)CN(C(=O)CN(C(=O)CN(C(=O)CN(C(=O)CN(CCCCN)C(=O)CN(CCCCN)C(=O)CN(CCCCN)C(=O)CNCCCCN)[C@@H](C)c1ccccc1)[C@@H](C)c1ccccc1)[C@@H](C)c1ccccc1)[C@@H](C)c1ccccc1)[C@@H](C)c1ccccc1)[C@@H](C)c1ccccc1)[C@@H](C)c1ccccc1 [1block, H-(Nlys)4-(Nspe)8-NH2] | 18 µM | 73 µM
4 | CC[C@H](C)N(CC(=O)N(CC(N)=O)[C@@H](C)c1ccccc1)C(=O)CN(CCCCN)C(=O)CN(C(=O)CN(C(=O)CN(CCCCN)C(=O)CN(C(=O)CN(C(=O)CN(CCCCN)C(=O)CN(C(=O)CN(C(=O)CNCCCCN)[C@@H](C)CC)[C@@H](C)c1ccccc1)[C@@H](C)CC)[C@@H](C)c1ccccc1)[C@@H](C)CC)[C@@H](C)c1ccccc1 [compound 2, H-(Nlys-Nssb-Nspe)4-NH2] (H-[Nlys][N(1S-Me-propyl)Gly][Nspe][Nlys][N(1S-Me-propyl)Gly][Nspe][Nlys][N(1S-Me-propyl)Gly][Nspe][Nlys][N(1S-Me-propyl)Gly][Nspe]-NH2) | >120/>120 μM | >120/>120 μM
5 | CC[C@H](C)N(CC(=O)N(CC(N)=O)[C@@H](C)c1ccc2ccccc2c1)C(=O)CN(CCCCN)C(=O)CN(C(=O)CN(C(=O)CN(CCCCN)C(=O)CN(C(=O)CN(C(=O)CN(CCCCN)C(=O)CN(C(=O)CN(C(=O)CNCCCCN)[C@@H](C)CC)[C@@H](C)c1ccccc1)[C@@H](C)CC)[C@@H](C)c1ccc2ccccc2c1)[C@@H](C)CC)[C@@H](C)c1ccccc1 [2-Nsna6,12] (H-[Nlys][N(1S-Me-propyl)Gly][Nspe][Nlys][N(1S-Me-propyl)Gly][X3][Nlys][N(1S-Me-propyl)Gly][Nspe][Nlys][N(1S-Me-propyl)Gly][X3]-NH2) | 55 µM | > 120 µM
6 | CC[C@H](C)N(CC(=O)N(CC(=O)N(CC(=O)N(CCCCN)CC(N)=O)[C@@H](C)c1ccccc1)[C@@H](C)CC)C(=O)CN(CCCCN)C(=O)CN(C(=O)CN(CCCCN)C(=O)CN(C(=O)CN(C(=O)CN(C(=O)CN(C(=O)CNCCCCN)[C@@H](C)CC)[C@@H](C)c1ccccc1)[C@@H](C)CC)[C@@H](C)c1ccccc1)[C@@H](C)c1ccccc1 [2scrambled, H-Nlys-Nssb-Nspe-Nssb-Nspe-Nlys-Nspe-Nlys-Nssb-Nssb-Nspe-Nlys-NH2] (H-[Nlys][N(1S-Me-propyl)Gly][Nspe][N(1S-Me-propyl)Gly][Nspe][Nlys][Nspe][Nlys][N(1S-Me-propyl)Gly][N(1S-Me-propyl)Gly][Nspe][Nlys]-NH2) | >120/>120 μM | >120/>120 μM
7 | C[C@@H](c1ccccc1)N(CC(N)=O)C(=O)CN(C(=O)CN(CCC(=O)O)C(=O)CN(C(=O)CN(C(=O)CN(CCC(=O)O)C(=O)CN(C(=O)CN(C(=O)CN(CCC(=O)O)C(=O)CN(C(=O)CN(C(=O)CNCCC(=O)O)[C@@H](C)c1ccccc1)[C@@H](C)c1ccccc1)[C@@H](C)c1ccccc1)[C@@H](C)c1ccccc1)[C@@H](C)c1ccccc1)[C@@H](C)c1ccccc1)[C@@H](C)c1ccccc1 [1-Nglu1,4,7,10] |  | >110/>110 μM
